This is an account of results in PubChem BioAssay AID1033 (Sanford-Burnham Center for Chemical Genomics, 2008).

The assay addresses Chaperone protein DnaK (Escherichia coli (strain K12)) (UniProt P0A6Y8). As to the kind of experiment: E. coli DnaK SBD ligand binding – biophysical, NMR, chaperone (AID 1033). The settings on record: Purified DnaK SBD.

Active and inactive are the calls of the source. No rule for the calls is given here.

Sequence of Chaperone protein DnaK (Escherichia coli (strain K12)) (P0A6Y8 whole entry, looked up): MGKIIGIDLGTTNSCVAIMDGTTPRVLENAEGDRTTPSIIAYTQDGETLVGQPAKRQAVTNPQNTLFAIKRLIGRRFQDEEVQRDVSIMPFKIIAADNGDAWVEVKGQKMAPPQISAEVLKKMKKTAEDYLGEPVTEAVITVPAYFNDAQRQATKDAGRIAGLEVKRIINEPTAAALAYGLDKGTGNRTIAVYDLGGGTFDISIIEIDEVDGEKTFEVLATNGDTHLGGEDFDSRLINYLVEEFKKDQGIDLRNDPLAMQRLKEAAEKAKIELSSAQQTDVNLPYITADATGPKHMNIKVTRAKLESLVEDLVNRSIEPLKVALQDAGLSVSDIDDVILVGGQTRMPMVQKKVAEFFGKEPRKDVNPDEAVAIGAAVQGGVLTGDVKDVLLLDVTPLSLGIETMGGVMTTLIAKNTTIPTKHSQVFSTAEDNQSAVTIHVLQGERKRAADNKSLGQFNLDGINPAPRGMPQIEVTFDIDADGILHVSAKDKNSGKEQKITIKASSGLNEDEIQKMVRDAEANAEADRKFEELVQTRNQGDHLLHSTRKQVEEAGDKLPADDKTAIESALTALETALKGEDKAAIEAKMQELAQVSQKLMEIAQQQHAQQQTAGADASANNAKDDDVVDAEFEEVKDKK

The term Kd denotes the free concentration of one partner at which half of the binding sites on the other are occupied at equilibrium, for simple one-to-one binding. Consider `NC(=O)C1(c2ccccc2)CCOCC1`, for which the Kd was > 4 mM (inactive). Consider `C[n+]1cccc(C(=O)[O-])c1`, for which the Kd is > 4 mM (inactive). For the compound `OCc1cc2ccccc2o1`, the Kd was > 4 mM (inactive). As for `CCc1noc(C)c1C(=O)N1CCCC1`, the figure is > 4 mM (inactive); as for `Nc1c2c3c(sc2nc(=O)n1N)CCCC3`, > 4 mM (inactive); as for `CC(C)(O)[C@@H]1Cc2cc3ccc(=O)oc3cc2O1`, > 4 mM (inactive). Regarding `O=c1[nH]cc(S(=O)(=O)Nc2ccccc2)c(=O)[nH]1`, the Kd was > 4 mM (inactive). Regarding `O=C1C2C3C=CC(C3)C2C(=O)N1CCO` (stereo not given), the Kd was > 4 mM (inactive). As for `CCC(CCC(C)[C@H]1CCC2C3CC=C4C[C@@H](O)CC[C@]4(C)C3CC[C@@]21C)C(C)C` (stereo not given in full), the figure is > 4 mM (inactive); as for `CC(CCC(=O)O)[C@H]1CCC2C3C[C@H](O)[C@@H]4C[C@H](O)CC[C@]4(C)C3CC[C@@]21C` (stereo not given in full), > 4 mM (inactive).

With `CNC(=O)c1cc(S(=O)(=O)N(C)C)ccc1Cl`, the Kd was > 4 mM (inactive). As for `NC(=O)C1CCN(C(=O)Nc2ccccc2)CC1`, the figure is > 4 mM (inactive); as for `NC(=O)C1CCN(Cc2ccccc2)CC1`, > 4 mM (inactive); as for `O=C(c1cnsn1)N1CCN(c2ccccc2)CC1`, > 4 mM (inactive). As for `ON=c1ccc2nc3ccccc3nc2cc1`, the figure is > 4 mM (inactive); as for `O=C1NCCCC1C(=O)N1CCCCC1` (stereo not given), > 4 mM (inactive); as for `O=C1c2ccccc2C(=O)N1/N=C/c1ccc[nH]1`, > 4 mM (inactive). As for `CC12CN(CC#N)CC(C)(CN(CC#N)C1)C2=O`, the figure is > 4 mM (inactive); as for `O=C(Nn1cnnc1)c1ccccc1-c1ccccc1`, > 4 mM (inactive); as for `O=C(CSc1ccnc(=O)[nH]1)NCc1ccccc1`, > 4 mM (inactive). For the compound `C[C@H]1O[C@@H](O[C@H]2[C@@H](O)C[C@H](O[C@H]3[C@@H](O)C[C@H](O[C@H]4CC[C@]5(C)C6C[C@@H](O)[C@]7(C)[C@@H](C8=CC(=O)OC8)CC[C@]7(O)C6CC[C@@H]5C4)O[C@@H]3C)O[C@@H]2C)C[C@H](O)[C@@H]1O` (stereo not given in full), the Kd was > 4 mM (inactive).

With `O=C(Cn1cnc2ccccc2c1=O)N1CCOCC1`, the Kd was > 4 mM (inactive). Turning to `COC(=O)Cc1cccc(OC)c1`, the Kd was > 4 mM (inactive).

For the compound `COC(=O)[C@@H]1OC(=O)C2OC23[C@@]1(C)CCC1[C@]2(C)C(C[C@@H](O)[C@]13C)C(C)(C)[C@H](OC(C)=O)C[C@@H]2OC(C)=O` (stereo not given in full), the Kd is > 4 mM (inactive). In the case of `Cn1c(NCc2ccco2)nc2ccccc21`, the Kd was > 4 mM (inactive). As to `CC1=C/C(=C\c2c(O)[nH]c(=O)[nH]c2=O)C(C)=N1`, the Kd was > 4 mM (inactive). Under `O=C(Nc1ccccc1F)c1ccncc1` stands > 4 mM (inactive); under `O=C(NCCO)NC(=S)c1ccccc1`, > 4 mM (inactive). Consider `CN1CCN(C2CCSC2)CC1` (stereo not given), for which the Kd was > 4 mM (inactive). `Cc1cc(=O)n(C(N)=S)[nH]1`: the Kd was > 4 mM (inactive).

On to `Cc1cc(C(=O)NCc2cccs2)cs1`, for which the Kd is > 4 mM (inactive). As for `COc1ccccc1C(=O)Nc1ccccn1`, the figure is > 4 mM (inactive). As for `COc1cc(OC)c2c(c1)O[C@H](c1ccc(OC)c(OC)c1)[C@@H](O)C2`, the Kd was > 4 mM (inactive). As for `CN(C(N)=O)C1(C)CCS(=O)(=O)C1` (stereo not given), the figure is > 4 mM (inactive). Consider `O=C(/C=C/c1ccccc1)c1ccc(O)cc1`, for which the Kd was > 4 mM (inactive).

Turning to `OCc1ccccc1N1CCOCC1`, the Kd is > 4 mM (inactive). Take `C=C[C@H]1CN2CC[C@H]1C[C@@H]2[C@@H](O)c1ccnc2ccc(OC)cc12`: the Kd was > 4 mM (inactive). As for `O=C(NCO)c1ccccc1Cl`, the Kd was > 4 mM (inactive). As for `Cc1cc(C)n(C/C=C/Cn2nc(C)cc2C)n1`, the figure is > 4 mM (inactive); as for `Cc1cc(C)n(CCCC(=O)O)n1`, > 4 mM (inactive); as for `COc1c2c(cc3occ(-c4ccc5c(c4)OCO5)c(=O)c13)OC(C)(C)C=C2`, > 4 mM (inactive).

Regarding `Cc1ccccc1NC(=O)c1ocnc1C`, the Kd is > 4 mM (inactive). Turning to `COC(=O)c1ccccc1N(C)S(C)(=O)=O`, the Kd was > 4 mM (inactive). Under `COc1ccc(-c2coc3cc(O)ccc3c2=O)c(OC)c1` stands > 4 mM (inactive); under `C/C(N)=C/C(=O)N1CCCCC1`, > 4 mM (inactive). As to `Nc1nc(=S)n2c(n1)oc1ccccc12`, the Kd is > 4 mM (inactive). Under `CC(=O)Nc1ccc(Cl)c(C(N)=O)c1` stands > 4 mM (inactive).

`O=C(Nc1cccnc1)N1CCOCC1`: the Kd is > 4 mM (inactive). Under `CS(=O)(=O)N1CCN(C(=O)c2ccccc2)CC1` stands > 4 mM (inactive); under `COc1ccc(NC(=O)c2ccc[n+]([O-])c2)cc1`, > 4 mM (inactive); under `Cc1c(C(=O)Nc2ccccn2)oc2ccccc12`, > 4 mM (inactive). Under `c1cc2n(c1)CCNC2c1ccncc1` (stereo not given) stands > 4 mM (inactive); under `O=C(NCc1cccc2ccsc12)c1cccs1`, below 0.2 mM; under `Nc1ccc(O)cn1`, > 4 mM (inactive).

In the case of `Cc1cc(NC(=O)CSc2ccnc(=O)[nH]2)no1`, the Kd is > 4 mM (inactive). `CC(=O)O[C@H]1CC[C@]2(C)C3CC[C@@]4(C)C(CC5O[C@@]6(CCC(C)CO6)[C@@H](C)C54)C3CC[C@@H]2C1` (stereo not given in full): the Kd is > 4 mM (inactive). As for `Oc1ccccc1N=Cc1cccnc1`, the figure is > 4 mM (inactive); as for `O=C(O)c1cc(O)c2c(c1)[C@@H]([C@H]1c3cc(C(=O)O)cc(O)c3C(=O)c3c(O[C@H]4O[C@H](CO)[C@@H](O)[C@H](O)[C@H]4O)cccc31)c1cccc(O[C@H]3O[C@H](CO)[C@@H](O)[C@H](O)[C@H]3O)c1C2=O`, > 4 mM (inactive); as for `COc1cc2c(cc1O)[C@@H](Cc1ccc(O)cc1)[N+](C)(C)CC2`, > 4 mM (inactive). In the case of `NC(=O)c1ccc(C(N)=O)c(-c2ccccc2)c1`, the Kd was > 4 mM (inactive). As for `O=C(O)C1Cc2ccccc2O1` (stereo not given), the figure is > 4 mM (inactive); as for `O=C1N=c2ccccc2=C1c1sc(=S)[nH]c1O`, > 4 mM (inactive); as for `c1ccc(Cn2c(Nn3cnnc3)nc3ccccc32)cc1`, > 4 mM (inactive). Under `Cc1nc(NC2=NCCC(=O)N2)nc2ccccc12` stands > 4 mM (inactive); under `COC(=O)c1cc2ccccc2cn1`, > 4 mM (inactive); under `Oc1ccc(/C=C/c2cc(O)cc(O)c2)cc1`, > 4 mM (inactive). As for `O=C(c1cc2ccccc2o1)N1CCCCCC1`, the figure is > 4 mM (inactive); as for `C=CCSCC=C`, > 4 mM (inactive); as for `Cc1cc(C)c2ccc[n+]([O-])c2c1O`, > 4 mM (inactive). On to `COc1cc2c(cc1OC)C(=O)OC2`, for which the Kd was > 4 mM (inactive). Under `O=C(NCc1ccccc1Br)c1ccco1` stands > 4 mM (inactive); under `Cc1ncc(C[n+]2csc3ccccc32)c(N)n1`, > 4 mM (inactive); under `CC(=O)CC1(O)C(=O)Nc2ccc(Br)cc21` (stereo not given), > 4 mM (inactive). `CC1=NN2C(=N)CC(=O)N=C2S1`: the Kd is > 4 mM (inactive). As to `Cc1cccc(CSc2nncc(=O)[nH]2)c1`, the Kd is > 4 mM (inactive). Regarding `COC(=O)Nc1nc2c(s1)CCCC2`, the Kd is > 4 mM (inactive).

Turning to `Cc1sc2nc(C)n(NC(N)=O)c(=O)c2c1C`, the Kd is > 4 mM (inactive). On to `NCc1ccccc1N1CCOCC1`, for which the Kd was > 4 mM (inactive). As for `O=C(Cc1c(F)cccc1Cl)Nc1cccnc1`, the figure is > 4 mM (inactive); as for `Cc1oc(S(=O)(=O)N2CCCCC2)cc1C(=O)O`, > 4 mM (inactive).

For the compound `CN1CCCC1C(=O)O` (stereo not given), the Kd was > 4 mM (inactive). As for `c1ccc(-c2nc3ccccc3nc2-c2ccccn2)nc1`, the Kd is > 4 mM (inactive).

In the case of `CN(c1ccccc1C(=O)N1CCOCC1)S(C)(=O)=O`, the Kd was > 4 mM (inactive). Under `CNC(=O)COc1cccc2c1CCNC2=O` stands > 4 mM (inactive); under `Cc1ccc(-n2cnnn2)c2cccnc12`, > 4 mM (inactive); under `NC(=O)c1cc(N)ccc1N1CCCCC1`, > 4 mM (inactive).

Regarding `CS(=O)(=O)Nc1ccccc1C(=O)c1ccccc1`, the Kd was > 4 mM (inactive). As to `CSc1ccc(C2NC(=O)CCC2[N+](=O)[O-])cc1` (stereo not given), the Kd was > 4 mM (inactive). In the case of `CC(C)CC(=O)Nc1c[nH]c(=O)[nH]c1=O`, the Kd was > 4 mM (inactive). As for `C[C@@H]1[C@H]2[C@H](O[C@@H]3O[C@H](CO)[C@@H](O)[C@H](O)[C@H]3O)OC=C(C(=O)O)[C@H]2C[C@@H]1O`, the figure is > 4 mM (inactive); as for `O=C(/C=C1\SC(=O)NC1=O)NCc1ccccc1`, > 4 mM (inactive); as for `CC1CC[C@]2(NC1)O[C@H]1CC3C4CC[C@H]5C[C@@H](O)CC[C@]5(C)C4CC[C@]3(C)[C@H]1[C@@H]2C` (stereo not given in full), > 4 mM (inactive).

In the case of `O=C(NCc1cccs1)c1ccncc1`, the Kd is > 4 mM (inactive).

For `Cn1ccc(C(=O)NC(=S)NN2CCOCC2)n1`, the Kd was > 4 mM (inactive). Turning to `O=C(Nc1ccon1)c1ccc2c(c1)OCO2`, the Kd was > 4 mM (inactive). On to `COc1ccccc1NC(=O)c1cc[n+]([O-])cc1`, for which the Kd is > 4 mM (inactive). Under `Cn1[nH]c(C(F)(F)F)cc1=O` stands > 4 mM (inactive); under `COC(=O)C1=C(C)N(c2cccc(C(C)=O)c2)C(=O)C1`, > 4 mM (inactive); under `Cc1cccc(N2CCN(C(=O)c3ccncc3)CC2)c1C`, > 4 mM (inactive). Under `CC(NC(=O)c1ccco1)c1ccc2c(c1)OCCO2` (stereo not given) stands > 4 mM (inactive).
